# Test results from patent US20260242405A1, “N-DERIVATIZED SIALIC ACIDS AND RELATED SIALOSIDES” (THE REGENTS OF THE UNIVERSITY OF CALIFORNIA, priority 2023, published 2026).
# Read-outs that look alike come from different tables or passages of the source.
# How the values were obtained:
# [1] = test system: NAs from both IAVs and IBVs
# Method: Enzyme-linked immunosorbent assays (ELISA). These assays were carried out in duplicates in 384-well NeutrAvidin-coated plates. The wells were washed with 3×80 μL of washing buffer (1× PBS buffer with 0.05% tween-20) and then were incubated with biotinylated glycans (10 μM, 20 μL) at 4° C. for overnight. Then the wells were washed with 3×80 μL of washing buffer and blocked with 60 μL of blocking buffer (1× PBS buffer with 0.1% BSA). The wells were then washed with 3×80 μL of washing buffer, and NA (10 μg/mL, 20 μL) was added to each well. The samples were incubated at 4° C. for 30 minutes. The wells were then washed with 3×80 μL of washing buffer, and HRP-conjugated anti-His or anti-Strep antibodies (0.1 μg/mL or with proper dilution using 1× PBS buffer with 0.1% BSA, 20 μL) were added. The samples were incubated at 4° C. for 30 minutes.
# H1N1/BR18 virus = details: virus in egg allantoic fluid, streptavidin plates or Dynabeads
# N1-BR18 = details: read-out: KD for the interaction of N1-BR18
substance,measurement,setting,value
"LacNAcβProNH-PEG4-Biotin [LacNAcβProNH-PEG4-Biotin (20), reference compound]",suitability as affinity ligand for immobilizing NAs (ELISA),[1],not suitable affinity ligands
same,detection and retention of H1N1/BR18 virions by immobilized ligand,H1N1/BR18 virus,did not retain influenza virions
4-Guanidino-Neu5Acα2-3LacNAcβPorNH-PEG4-Biotin [Compound 10d],"binding of influenza NAs to immobilized sialoside (BLI), in words",influenza NAs,significantly stronger binders than other sialosides
same,Kd,N1-BR18,45.5 nM
same,detection and retention of H1N1/BR18 virions by immobilized ligand,H1N1/BR18 virus; listed as 4-Guanidino-Neu5Acα2-3LacNAcβProNH-PEG4-Biotin (10d),effective affinity ligand for detecting and purifying H1N1 virus
same,detection and retention of H1N1/BR18 virions by immobilized ligand,H1N1/BR18 virus; listed as 4-guanidino-Neu5Acα2-3LacNAcβProNH-PEG4-Biotin (10d),efficient in retaining H1N1/BR18 virions
